Laboratory results taken from patent US5856341A, “Benzo [B] indeno [2,1-D] thiophene compounds, intermediates, processes, compositions and methods” (Eli Lilly and Company, priority 1997, dated 1999).

What was measured:
serum cholesterol = assay: Serum cholesterol in ovariectomized rats (Cholesterol Analysis); format: in vivo, Sprague Dawley rats; details: for Serum Cholest. % Decrease verses ovariectomized controls: daily for 4 days, OVX rats
Procedure: (§1) In the examples illustrating the methods, a postmenopausal model was used in which effects of different treatments upon circulating lipids were determined.
(§2) Seventy-five day old female Sprague Dawley rats (weight range of 200 to 225 g) were obtained from Charles River Laboratories (Portage, Mich.). The animals were either bilaterally ovariectomized (OVX) or exposed to a Sham surgical procedure at Charles River Laboratories, and then shipped after one week. Upon arrival, they were housed in metal hanging cages in groups of 3 or 4 per cage and had ad libitum access to food (calcium content approximately 0.5%) and water for one week. Room temperature was maintained at 22.2°±1.7° C. with a minimum relative humidity of 40%. The photoperiod in the room was 12 hours light and 12 hours dark.
(§3) Dosing Regimen Tissue Collection. After a one week acclimation period (therefore, two weeks post-OVX) daily dosing with test compound was initiated. 17α-ethynyl estradiol or the test compound were given orally, unless otherwise stated, as a suspension in 1% carboxymethylcellulose or dissolved in 20% cyclodextrin. Animals were dosed daily for 4 days. Following the dosing regimen, animals were weighed and anesthetized with a ketamine: xylazine (2:1, V:V) mixture and a blood sample was collected by cardiac puncture. The animals were then sacrificed by asphyxiation with CO2, the uterus was removed through a midline incision, and a wet uterine weight was determined.
Cholesterol Analysis. Blood samples were allowed to clot at room temperature for 2 hours, and serum was obtained following centrifugation for 10 minutes at 3000 rpm. Serum cholesterol was determined using a Boehringer Mannheim Diagnostics high performance cholesterol assay. Briefly the cholesterol was oxidized to cholest-4-en-3-one and hydrogen peroxide. The hydrogen peroxide was then reacted with phenol and 4-aminophenazone in the presence of peroxidase to produce a p-quinone imine dye, which was read spectrophotemetrically at 500 nm. Cholesterol concentration was then calculated against a standard curve.
(§4) Source of Compound: 17α-ethynyl estradiol was obtained from Sigma Chemical Co., St. Louis, Mo.
(§5) Data presented in Table 1 below show comparative results among ovariectomized rats, rats treated with 17α-ethynyl estradiol (EE2; an orally available form of estrogen), and rats treated with certain compounds of the instant invention. […] This uterine response to estrogen is well recognized in the art.
(§6) The data presented in Table 1 below reflects the response of 5 to 6 rats per treatment.

femur = assay: Osteoporosis Test Procedure: bone protection in ovariectomized rats, 35 days oral; format: in vivo; details: for Femur BMD % protection / Femur. % Protection (x-ray image): 35 days, relative to ovariectomy
Procedure: Following the General Preparation Procedure, infra, the rats are treated daily for 35 days (6 rats per treatment group) and sacrificed by carbon dioxide asphyxiation on the 36th day. The 35 day time period is sufficient to allow maximal reduction in bone density, measured as described herein. At the time of sacrifice, the uteri are removed, dissected free of extraneous tissue, and the fluid contents are expelled before determination of wet weight in order to confirm estrogen deficiency associated with complete ovariectomy. […] The uteri are then placed in 10% neutral buffered formalin to allow for subsequent histological analysis. The right femurs are excised and digitilized x-rays generated and analyzed by an image analysis program (NIH image) at the distal metaphysis. The proximal aspect of the tibiae from these animals are also scanned by quantitative computed tomography. In accordance with the above procedures, compounds of the instant invention and ethynyl estradiol (EE2) in 20% hydroxypropyl β-cyclodextrin are orally administered to test animals. Distal femur metaphysis and proximal tibiae data are the results of formula I compound treatments compared to intact and ovariectomized test animals. Results are reported as percent protection relative to ovariectomy in Table 2 below.

uterus = assay: Uterine weight in ovariectomized rats, 4 days daily oral dosing (postmenopausal model); format: in vivo, Sprague Dawley rats; details: for Uterine Weight % Increase verses ovariectomized controls: daily for 4 days, OVX rats
Procedure: as §1, §2, §3, §4, §5, §6

Eosinophil peroxidase = assay: Uterine Eosinophil Peroxidase (EPO) Assay in ovariectomized rats; format: in vivo, Sprague Dawley rats; details: for Uterine Eosinophil peroxidase, Vmax: daily for 4 days, OVX rats
Procedure: as §1, §2, §3
Uterine Eosinophil Peroxidase (EPO) Assay. Uteri were kept at 4° C. until time of enzymatic analysis. The uteri were then homogenized in 50 volumes of 50 mM Tris buffer (pH-8.0) containing 0.005% Triton X-100. Upon addition of 0.01% hydrogen peroxide and 10 mM O-phenylenediamine (final concentrations) in Tris buffer, increase in absorbance was monitored for one minute at 450 nm. The presence of eosonophils in the uterus is an indication of estrogenic activity of a compound. The maximal velocity of a 15 second interval was determined over the initial, linear portion of the reaction curve.
as §4
As is expressed in the data below, estrogenicity also was assessed by evaluating the adverse response of eosinophil infiltration into the uterus.
as §6

[1] = test system: MCF-7 breast adenocarcinoma cells; assay: MCF-7 Proliferation Assay (tritiated thymidine incorporation); format: cell-based; details: Homo sapiens, MCF7; 48 hours with drug, then tritiated thymidine 4 hours; read-out: ED50 (MCF-7 proliferation)
Procedure: MCF-7 breast adenocarcinoma cells (ATCC HTB 22) were maintained in MEM (minimal essential medium, phenol red-free, Sigma, St. Louis, Mo.) supplimented with 10% fetal bovine serum (FBS) (V/V), L-glutamine (2 mM), sodium pyruvate (1 mM), HEPES {(N-[2-hydroxyethyl]piperazine-N'-[2-ethanesulfonic acid]10 mM}, non-essential amino acids and bovine insulin (1 μg/mL) (maintenance medium). Ten days prior to assay, MCF-7 cells were switched to maintenance medium supplemented with 10% dextran coated charcoal stripped fetal bovine serum (DCC-FBS) assay medium) in place of 10% FBS to deplete internal stores of steroids. MCF-7 cells were removed from maintenance flasks using cell dissociation medium (Ca^++ /Mg^++ free HBSS (phenol red-free) supplemented with 10 mM HEPES and 2 mM EDTA). Cells were washed twice with assay medium and adjusted to 80,000 cells/mL. Approximately […] (8,000 cells) were added to flat-bottom microculture wells (Costar 3596) and incubated at 37° C. in a 5% CO2 humidified incubator for 48 hours to allow for cell adherence and equilibration after transfer. Serial dilutions of drugs or DMSO as a diluent control were prepared in assay medium and […] to triplicate microcultures followed by […] assay medium for a final volume of […]. After an additional 48 hours at 37° C. in a 5% CO2 humidified incubator, microcultures were pulsed with tritiated thymidine (1 uCi/well) for 4 hours. Cultures were terminated by freezing at -70° C. for 24 hours followed by thawing and harvesting of microcultures using a Skatron Semiautomatic Cell Harvester. Samples were counted by liquid scintillation using a Wallace BetaPlace β counter. Results in Table 3 below show the ED50 (nM) for certain compounds of the instant invention: […]

C#C[C@]1(O)CC[C@H]2[C@@H]3CCc4cc(O)ccc4[C@H]3CC[C@@]21C [EE2, 17α-ethynyl estradiol, reference compound]
Serum Cholest. % Decrease verses ovariectomized controls (serum cholesterol; 0.1 mg/kg PO): 90.5%
serum cholesterol, in words (serum cholesterol; oral, compared to ovariectomized control animals): caused a decrease in serum cholesterol when orally administered at 0.1 mg/kg/day
Femur BMD % protection (femur; 0.1 mg/kg oral): 76.3%
Femur. % Protection (x-ray image) (femur; 0.1 mg/kg oral): 99.1%
prevention of bone loss, in words (femur; oral, OVX rats, femur density): prevents this loss
Uterine Weight % Increase verses ovariectomized controls (uterus; 0.1 mg/kg PO): 169.5%
uterine weight, in words (uterus; oral, compared to ovariectomized animals): uterine weight was substantially greater than the uterine weight of ovariectomized test animals
Uterine Eosinophil peroxidase, Vmax (Eosinophil peroxidase; 0.1 mg/kg PO): 144.0
eosinophil infiltration into the uterus, in words (Eosinophil peroxidase; stromal layer of ovariectomized rats): substantial, expected increase in eosinophil infiltration

Oc1ccc2c(c1)-c1sc3cc(O)ccc3c1C2c1ccc(OCCN2CCCCC2)cc1 (stereo not drawn) [Example 2, 10-[4-[2-(1-Piperidinyl)ethoxy]phenyl]-3,7-dihydroxy benzo[b]indeno[2,1-d]thiophene]
Serum Cholest. % Decrease verses ovariectomized controls (serum cholesterol; 0.1 mg/kg PO): 41.4%
Serum Cholest. % Decrease verses ovariectomized controls (serum cholesterol; 1 mg/kg PO): 52.5%
Serum Cholest. % Decrease verses ovariectomized controls (serum cholesterol; 10 mg/kg PO): 66.3%
Uterine Weight % Increase verses ovariectomized controls (uterus; 0.1 mg/kg PO): 14.6%
Uterine Weight % Increase verses ovariectomized controls (uterus; 1 mg/kg PO): 25.6%
Uterine Weight % Increase verses ovariectomized controls (uterus; 10 mg/kg PO): 18.3%
IC50 [1]: 0.1 nM
Uterine Eosinophil peroxidase, Vmax (Eosinophil peroxidase; 0.1 mg/kg PO): 4.8
Uterine Eosinophil peroxidase, Vmax (Eosinophil peroxidase; 1 mg/kg PO): 24.0
Uterine Eosinophil peroxidase, Vmax (Eosinophil peroxidase; 10 mg/kg PO): 23.4

COc1ccc2c(c1)-c1sc3cc(OC)ccc3c1C2c1ccc(OCCN2CCCCC2)cc1 (stereo not drawn) [Example 1A, 10-[4-[2-(1-Piperidinyl)ethoxy]phenyl]-3,7-dimethoxybenzo[b]indeno[2,1-d]thiophene]
Serum Cholest. % Decrease verses ovariectomized controls (serum cholesterol; 0.1 mg/kg PO): 59.1%
Serum Cholest. % Decrease verses ovariectomized controls (serum cholesterol; 1 mg/kg PO): 47.7%
Serum Cholest. % Decrease verses ovariectomized controls (serum cholesterol; 10 mg/kg PO): 68.7%
Uterine Weight % Increase verses ovariectomized controls (uterus; 0.1 mg/kg PO): 19.2%
Uterine Weight % Increase verses ovariectomized controls (uterus; 1 mg/kg PO): 21.6%
Uterine Weight % Increase verses ovariectomized controls (uterus; 10 mg/kg PO): 26.8%
IC50 [1]: 200 nM
Uterine Eosinophil peroxidase, Vmax (Eosinophil peroxidase; 0.1 mg/kg PO): 7.2
Uterine Eosinophil peroxidase, Vmax (Eosinophil peroxidase; 1 mg/kg PO): 30.3
Uterine Eosinophil peroxidase, Vmax (Eosinophil peroxidase; 10 mg/kg PO): 21.9

COc1ccc2c3c(sc2c1)-c1ccccc1C3c1ccc(OCCN2CCCCC2)cc1 (stereo not drawn) [Example 5A, 10-[4-[2-(1-Piperidinyl)ethoxy]phenyl]-7-methoxy benzo[b]indeno[2,1-d]thiophene]
Serum Cholest. % Decrease verses ovariectomized controls (serum cholesterol; 0.1 mg/kg PO): 59.1%
Serum Cholest. % Decrease verses ovariectomized controls (serum cholesterol; 1 mg/kg PO): 74.4%
Serum Cholest. % Decrease verses ovariectomized controls (serum cholesterol; 10 mg/kg PO): 60.3%
Uterine Weight % Increase verses ovariectomized controls (uterus; 0.1 mg/kg PO): 33.8%
Uterine Weight % Increase verses ovariectomized controls (uterus; 1 mg/kg PO): 63.5%
Uterine Weight % Increase verses ovariectomized controls (uterus; 10 mg/kg PO): 92.9%
Uterine Eosinophil peroxidase, Vmax (Eosinophil peroxidase; 0.1 mg/kg PO): 6.4
Uterine Eosinophil peroxidase, Vmax (Eosinophil peroxidase; 1 mg/kg PO): 35.4
Uterine Eosinophil peroxidase, Vmax (Eosinophil peroxidase; 10 mg/kg PO): 31.8

COc1ccc2c(c1)C(O)(c1ccc(OCCN3CCCCC3)cc1)c1c-2sc2cc(OC)ccc12 (stereo not drawn) [Example 3B, 10-[4-[2-(1-Piperidinyl)ethoxy]phenyl]-2,7-dimethoxy benzo[b]indeno[2,1-d]thiophen-10-ol]
Serum Cholest. % Decrease verses ovariectomized controls (serum cholesterol; 0.1 mg/kg PO): 43.5%
Serum Cholest. % Decrease verses ovariectomized controls (serum cholesterol; 1 mg/kg PO): 62.5%
Serum Cholest. % Decrease verses ovariectomized controls (serum cholesterol; 10 mg/kg PO): 69.2%
Uterine Weight % Increase verses ovariectomized controls (uterus; 0.1 mg/kg PO): 50.4%
Uterine Weight % Increase verses ovariectomized controls (uterus; 1 mg/kg PO): 43.0%
Uterine Weight % Increase verses ovariectomized controls (uterus; 10 mg/kg PO): 28.2%
Uterine Eosinophil peroxidase, Vmax (Eosinophil peroxidase; 0.1 mg/kg PO): 36.0
Uterine Eosinophil peroxidase, Vmax (Eosinophil peroxidase; 1 mg/kg PO): 36.6
Uterine Eosinophil peroxidase, Vmax (Eosinophil peroxidase; 10 mg/kg PO): 19.2

c1ccc2c(c1)-c1sc3ccccc3c1C2c1ccc(OCCN2CCCCC2)cc1 (stereo not drawn) [Example 1B, 10-[4-[2-(1-Piperidinyl)ethoxy]phenyl]benzo[b] indeno[2,1-d]thiophene]
Serum Cholest. % Decrease verses ovariectomized controls (serum cholesterol; 0.1 mg/kg PO): 56.8%
Serum Cholest. % Decrease verses ovariectomized controls (serum cholesterol; 1 mg/kg PO): 71.0%
Serum Cholest. % Decrease verses ovariectomized controls (serum cholesterol; 10 mg/kg PO): 75.3%
Uterine Weight % Increase verses ovariectomized controls (uterus; 0.1 mg/kg PO): 21%
Uterine Weight % Increase verses ovariectomized controls (uterus; 1 mg/kg PO): 31.8%
Uterine Weight % Increase verses ovariectomized controls (uterus; 10 mg/kg PO): 27.7%
IC50 [1]: 100 nM
Uterine Eosinophil peroxidase, Vmax (Eosinophil peroxidase; 0.1 mg/kg PO): 4.8
Uterine Eosinophil peroxidase, Vmax (Eosinophil peroxidase; 1 mg/kg PO): 34.2
Uterine Eosinophil peroxidase, Vmax (Eosinophil peroxidase; 10 mg/kg PO): 50.4

Cl.Oc1ccc2c3c(sc2c1)-c1ccccc1C3c1ccc(OCCN2CCCCC2)cc1 (stereo not drawn) [Example 6, 10-[4-[2-(1-Piperidinyl)ethoxy]phenyl]-7-hydroxy benzo[b]indeno[2,1-d]thiophene hydrochloride]
Serum Cholest. % Decrease verses ovariectomized controls (serum cholesterol; 0.1 mg/kg PO): 1.3%
Serum Cholest. % Decrease verses ovariectomized controls (serum cholesterol; 1 mg/kg PO): 40.6%
Serum Cholest. % Decrease verses ovariectomized controls (serum cholesterol; 10 mg/kg PO): 69.9%
Femur BMD % protection (femur; 0.01 mg/kg oral): 40.4%
Femur. % Protection (x-ray image) (femur; 0.01 mg/kg oral): 53.8%
Femur BMD % protection (femur; 0.1 mg/kg oral): 46.6%
Femur. % Protection (x-ray image) (femur; 0.1 mg/kg oral): 39.2%
Femur BMD % protection (femur; 1 mg/kg oral): 66.6%
Femur. % Protection (x-ray image) (femur; 1 mg/kg oral): 73.4%
Femur BMD % protection (femur; 10 mg/kg oral): 64.0%
Femur. % Protection (x-ray image) (femur; 10 mg/kg oral): 48.2%
Uterine Weight % Increase verses ovariectomized controls (uterus; 0.1 mg/kg PO): 32.5%
Uterine Weight % Increase verses ovariectomized controls (uterus; 1 mg/kg PO): 67.4%
Uterine Weight % Increase verses ovariectomized controls (uterus; 10 mg/kg PO): 54.0%
IC50 [1]: 10 nM
Uterine Eosinophil peroxidase, Vmax (Eosinophil peroxidase; 0.1 mg/kg PO): 2.9
Uterine Eosinophil peroxidase, Vmax (Eosinophil peroxidase; 1 mg/kg PO): 3.7
Uterine Eosinophil peroxidase, Vmax (Eosinophil peroxidase; 10 mg/kg PO): 29.8
